The source of these data is patent publication US11976072B2, “Diacylglycerol kinase modulating compounds” (priority 2021, dated 2024).

Assay [1] concerns Jurkat NFκB-luciferase cells. The assay can be described thus: Jurkat NFκB-Luciferase Assay. Particulars: Homo sapiens; Jurkat NFκB-luciferase cells activated with anti-CD3 antibody (OKT3), 2.5 hrs at 37° C.; geometric mean; read-out: DGK NFKb Luciferase EC50. Format: cell-based. A digest of the protocol: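 Jurkat NFκB-luciferase reporter cells at 1 million cells/ml in RPMI with 10% FBS were added to antibody-coated, compound-containing wells. Luciferase activity read by One-Glo Ex luminescence 7 minutes after reagent addition.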

Another assay has as its target human DGKα (Homo sapiens, UniProt P23743). The assay can be described thus: DGKα Biochemical Activity Assay (ADP-Glo).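 Further: luminescent detection of ADP produced as DGKα phosphorylates DAG to phosphatidic acid, IC50 from four-parameter nonlinear curve fit.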 Particulars: recombinant DGKα 1 nM, 100 μM ATP, 18:1 DAG/POPS/octylglucoside micelles, 1 hour at 25° C.; geometric mean; read-out: HTBS DGKa 1X ATP KM IC50.

human DGKα, sequence (P23743 whole entry): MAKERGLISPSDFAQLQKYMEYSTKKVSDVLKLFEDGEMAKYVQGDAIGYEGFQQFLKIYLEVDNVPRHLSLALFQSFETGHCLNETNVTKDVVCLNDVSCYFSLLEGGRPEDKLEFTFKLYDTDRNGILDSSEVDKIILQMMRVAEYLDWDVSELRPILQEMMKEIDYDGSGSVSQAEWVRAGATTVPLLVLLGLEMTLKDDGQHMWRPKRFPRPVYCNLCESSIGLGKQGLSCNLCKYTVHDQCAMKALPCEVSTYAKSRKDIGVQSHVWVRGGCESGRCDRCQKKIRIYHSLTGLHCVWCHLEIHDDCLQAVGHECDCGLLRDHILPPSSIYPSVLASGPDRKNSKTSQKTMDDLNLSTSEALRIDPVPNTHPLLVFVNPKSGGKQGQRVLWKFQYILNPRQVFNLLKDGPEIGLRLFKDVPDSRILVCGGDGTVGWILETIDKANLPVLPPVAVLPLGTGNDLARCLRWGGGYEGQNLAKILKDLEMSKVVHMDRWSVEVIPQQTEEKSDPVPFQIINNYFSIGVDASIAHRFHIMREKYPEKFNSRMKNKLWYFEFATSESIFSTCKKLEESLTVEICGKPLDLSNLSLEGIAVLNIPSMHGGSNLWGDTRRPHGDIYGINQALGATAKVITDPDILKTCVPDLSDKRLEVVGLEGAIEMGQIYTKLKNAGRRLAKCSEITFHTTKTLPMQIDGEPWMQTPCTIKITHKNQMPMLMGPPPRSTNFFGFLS

For the compound `CC(C)(C#Cc1cccc(N(CC(F)F)c2nc3nncn3c3ccc(F)cc23)c1F)C(F)F` [Example 57, N-[3-(4,4-difluoro-3,3-dimethyl-but-1-ynyl)-2-fluoro-phenyl]-N-(2,2-difluoroethyl)-7-fluoro-[1,2,4]triazolo[4,3-a]quinazolin-5-amine], the EC50 in assay [1] is 0.669 nM. Besides, at human DGKα, the IC50 stood at 46.2 nM.
For the compound `Cc1nnc2nc(N3c4cccc(C#CC5(C(F)(F)F)CC5)c4CCC3C)c3c(F)cccc3n12` (stereo not drawn) [Example 58, 6-fluoro-1-methyl-5-(2-methyl-5-((1-(trifluoromethyl)cyclopropyl)ethynyl)-3,4-dihydroquinolin-1(2H)-yl)-[1,2,4]triazolo[4,3-a]quinazoline], in assay [1], the EC50 worked out at 3.67 nM. Further, the IC50 at human DGKα came to 78.3 nM.
As for `Cc1nnc2nc(N3c4cccc(C#CC(C)(C)O)c4CCC3C)c3c(F)cccc3n12` (stereo not drawn) [Example 59, 4-(1-(6-fluoro-1-methyl-[1,2,4]triazolo[4,3-a]quinazolin-5-yl)-2-methyl-1,2,3,4-tetrahydroquinolin-5-yl)-2-methylbut-3-yn-2-ol], the EC50 in assay [1] is 11.7 nM. Also, at human DGKα, the half-maximal inhibitory concentration (IC50) worked out at 11.2 nM.
For `CC(C)(O)C#Cc1cc(N(CC(F)F)c2nc3nncn3c3c(Cl)cc(F)cc23)ccn1` [Example 60, 4-(4-((9-chloro-7-fluoro-[1,2,4]triazolo[4,3-a]quinazolin-5-yl)(2,2-difluoroethyl)amino)pyridin-2-yl)-2-methylbut-3-yn-2-ol], in assay [1], the EC50 came to 532 nM. The IC50 at human DGKα is 69.2 nM.
As to `CC1(C#Cc2cc(N(CC(F)F)c3nc4nncn4c4c(Cl)cc(F)cc34)ccn2)CC1` [Example 61, 9-chloro-N-(2,2-difluoroethyl)-7-fluoro-N-(2-((1-methylcyclopropyl)ethynyl)pyridin-4-yl)-[1,2,4]triazolo[4,3-a]quinazolin-5-amine], the EC50 in assay [1] stood at 3.36 nM. Also, the IC50 on human DGKα stood at 8.48 nM.
The corresponding values for `Cc1nnc2nc(N(CC(F)F)c3cc(F)cc(C#CC(C)(C)c4ccncc4)c3)c3c(F)c(F)ccc3n12` [Example 62, N-(2,2-difluoroethyl)-6,7-difluoro-N-(3-fluoro-5-(3-methyl-3-(pyridin-4-yl)but-1-yn-1-yl)phenyl)-1-methyl-[1,2,4]triazolo[4,3-a]quinazolin-5-amine] are 3.24 nM and 80.1 nM.
For the compound `Cc1nnc2nc(N3CCOCc4c(C#CC(C)(C)C(=O)NC(C)(C)C(F)(F)F)cccc43)c3c(F)c(F)ccc3n12` [Example 63, 4-(1-(6,7-difluoro-1-methyl-[1,2,4]triazolo[4,3-a]quinazolin-5-yl)-1,2,3,5-tetrahydrobenzo[e][1,4]oxazepin-6-yl)-2,2-dimethyl-N-(1,1,1-trifluoro-2-methylpropan-2-yl)but-3-ynamide], the EC50 in assay [1] was found to be 4.17 nM. At human DGKα, the IC50 amounted to 19.4 nM.
For `Cc1nnc2nc(N3CCOCc4c(C#CC(C)(C)C(=O)NC5(C(F)(F)F)CC5)cccc43)c3c(F)c(F)ccc3n12` [Example 64, 4-(1-(6,7-difluoro-1-methyl-[1,2,4]triazolo[4,3-a]quinazolin-5-yl)-1,2,3,5-tetrahydrobenzo[e][1,4]oxazepin-6-yl)-2,2-dimethyl-N-(1-(trifluoromethyl)cyclopropyl)but-3-ynamide], in assay [1], the EC50 is 7.43 nM. At human DGKα, the IC50 worked out at 9.97 nM.
In the case of `Cc1nnc2nc(N3CCCc4c(C#CC(C)(C)C(=O)NC5(C(F)(F)F)CC5)cccc43)c3c(F)cccc3n12` [Example 65, 4-(1-(6-fluoro-1-methyl-[1,2,4]triazolo[4,3-a]quinazolin-5-yl)-1,2,3,4-tetrahydroquinolin-5-yl)-2,2-dimethyl-N-(1-(trifluoromethyl)cyclopropyl)but-3-ynamide], in assay [1], the EC50 was found to be 46.7 nM. Besides, at human DGKα, the IC50 was found to be 189 nM.
On to `Cc1cnc(C(C)(C)C#Cc2cccc3c2COCCN3c2nc3nnc(C)n3c3ccc(F)c(F)c23)o1` [Example 66, 1-(6,7-difluoro-1-methyl-[1,2,4]triazolo[4,3-a]quinazolin-5-yl)-6-(3-methyl-3-(5-methyloxazol-2-yl)but-1-yn-1-yl)-1,2,3,5-tetrahydrobenzo[e][1,4]oxazepine], for which the EC50 in assay [1] was 6.78 nM. The IC50 at human DGKα is 12.8 nM.
On to `Cc1nnc2nc(N(CC(F)F)c3cc(F)cc(C#CC(C)(C)c4cccnc4)c3)c3c(F)c(F)ccc3n12` [Example 67, N-(2,2-difluoroethyl)-6,7-difluoro-N-(3-fluoro-5-(3-methyl-3-(pyridin-3-yl)but-1-yn-1-yl)phenyl)-1-methyl-[1,2,4]triazolo[4,3-a]quinazolin-5-amine], for which, in assay [1], the EC50 was determined as 11.6 nM. Further, on human DGKα, the IC50 stood at 156 nM.
As to `Cc1nnc2nc(N(CC(F)F)c3cc(F)cc(C#CC(C)(C)c4ccccn4)c3)c3c(F)c(F)ccc3n12` [Example 68, N-(2,2-difluoroethyl)-6,7-difluoro-N-(3-fluoro-5-(3-methyl-3-(pyridin-2-yl)but-1-yn-1-yl)phenyl)-1-methyl-[1,2,4]triazolo[4,3-a]quinazolin-5-amine], the EC50 in assay [1] stood at 9.68 nM. Moreover, the half-maximal inhibitory concentration (IC50) at human DGKα turned out to be 191 nM.
Take `Cc1nnc2nc(N3CCCc4c(C#CC(C)(C)C(=O)N5CCC(F)(F)CC5)cccc43)c3c(F)cccc3n12` [Example 69, 1-(4,4-difluoropiperidin-1-yl)-4-(1-(6-fluoro-1-methyl-[1,2,4]triazolo[4,3-a]quinazolin-5-yl)-1,2,3,4-tetrahydroquinolin-5-yl)-2,2-dimethylbut-3-yn-1-one]: in assay [1], the EC50 is 2.26 nM. Also, the IC50 on human DGKα amounted to 70.5 nM.
In the case of `Cc1nnc2nc(N3CCCc4c(C#CC(C)(C)C(=O)N5CCOC(C)(C)C5)cccc43)c3c(F)cccc3n12` [Example 70, 1-(2,2-dimethylmorpholino)-4-(1-(6-fluoro-1-methyl-[1,2,4]triazolo[4,3-a]quinazolin-5-yl)-1,2,3,4-tetrahydroquinolin-5-yl)-2,2-dimethylbut-3-yn-1-one], the EC50 in assay [1] worked out at 5.62 nM. Moreover, on human DGKα, the IC50 came out at 29.2 nM.
Regarding `Cc1nnc2nc(N3CCCc4c(C#CC(C)(C)c5ccccn5)cccc43)c3c(F)cccc3n12` [Example 71, 6-fluoro-1-methyl-5-(5-(3-methyl-3-(pyridin-2-yl)but-1-yn-1-yl)-3,4-dihydroquinolin-1(2H)-yl)-[1,2,4]triazolo[4,3-a]quinazoline], the concentration giving a half-maximal response (EC50) in assay [1] amounted to 11.3 nM. Moreover, on human DGKα, the IC50 came out at 124 nM.
As to `Cc1cnc(C(C)(C)C#Cc2cccc3c2CCCN3c2nc3nnc(C)n3c3cccc(F)c23)o1` [Example 72, 2-(4-(1-(6-fluoro-1-methyl-[1,2,4]triazolo[4,3-a]quinazolin-5-yl)-1,2,3,4-tetrahydroquinolin-5-yl)-2-methylbut-3-yn-2-yl)-5-methyloxazole], the EC50 in assay [1] came to 2.2 nM. On human DGKα, the IC50 stood at 19.8 nM.
In the same order, the values of `Cc1nnc2nc(N3CCCc4c(C#CC(C)(C)C(=O)O)cccc43)c3c(F)cccc3n12` [Example 73, 4-(1-(6-fluoro-1-methyl-[1,2,4]triazolo[4,3-a]quinazolin-5-yl)-1,2,3,4-tetrahydroquinolin-5-yl)-2,2-dimethylbut-3-ynoic Acid] are 10.8 nM and 61.3 nM.
Take `COc1ccc(C#Cc2cc(N(CC(F)F)c3nc4nnc(C)n4c4cccc(F)c34)ccn2)cn1` [Example 74, N-(2,2-difluoroethyl)-6-fluoro-N-(2-((6-methoxypyridin-3-yl)ethynyl)pyridin-4-yl)-1-methyl-[1,2,4]triazolo[4,3-a]quinazolin-5-amine]: in assay [1], the EC50 stood at 1.95 nM. For the same compound, the IC50 at human DGKα was determined as 6.1 nM.
Regarding `COc1ccc(C#Cc2nccc3c2CCCN3c2nc3nnc(C)n3c3cccc(F)c23)cn1` [Example 75, 6-fluoro-5-(5-((6-methoxypyridin-3-yl)ethynyl)-3,4-dihydro-1,6-naphthyridin-1(2H)-yl)-1-methyl-[1,2,4]triazolo[4,3-a]quinazoline], in assay [1], the EC50 was 3.41 nM. Moreover, the half-inhibitory concentration (IC50) on human DGKα is 28.9 nM.
In the case of `Cc1nccn1C(C)(C)C#Cc1cccc2c1CCCN2c1nc2nnc(C)n2c2cccc(F)c12` [Example 76, 6-fluoro-1-methyl-5-(5-(3-methyl-3-(2-methyl-1H-imidazol-1-yl)but-1-yn-1-yl)-3,4-dihydroquinolin-1(2H)-yl)-[1,2,4]triazolo[4,3-a]quinazoline], the EC50 in assay [1] turned out to be 8.01 nM. In addition, the IC50 at human DGKα worked out at 13.4 nM.
The corresponding values for `Cc1nc(C(C)(C)C#Cc2cccc3c2CCCN3c2nc3nnc(C)n3c3cccc(F)c23)oc1C` [Example 77, 2-(4-(1-(6-fluoro-1-methyl-[1,2,4]triazolo[4,3-a]quinazolin-5-yl)-1,2,3,4-tetrahydroquinolin-5-yl)-2-methylbut-3-yn-2-yl)-4,5-dimethyloxazole] are 1.94 nM and 15.5 nM.
As to `Cc1nnc2nc(N3CCCc4c(C#CC(C)(C)n5ccnc5)cccc43)c3c(F)cccc3n12` [Example 78, 5-(5-(3-(1H-imidazol-1-yl)-3-methylbut-1-yn-1-yl)-3,4-dihydroquinolin-1(2H)-yl)-6-fluoro-1-methyl-[1,2,4]triazolo[4,3-a]quinazoline], the concentration for a half-maximal effect (EC50) in assay [1] stood at 7.73 nM. For the same compound, at human DGKα, the IC50 was determined as 41.2 nM.
`Cc1nnc2nc(N3CCCc4c(C#CC(C)(C)c5ncco5)cccc43)c3c(F)cccc3n12` [Example 79, 2-(4-(1-(6-fluoro-1-methyl-[1,2,4]triazolo[4,3-a]quinazolin-5-yl)-1,2,3,4-tetrahydroquinolin-5-yl)-2-methylbut-3-yn-2-yl)oxazole]: the EC50 in assay [1] was 2.54 nM. Also, the 50% inhibitory concentration (IC50) at human DGKα came to 22.6 nM.
In the case of `Cc1nnc2nc(N(CC(F)F)c3ccnc(C#CC(C)(C)C(F)(F)F)c3F)c3c(F)c(F)ccc3n12` [Example 80, N-(2,2-difluoroethyl)-6,7-difluoro-N-(3-fluoro-2-(4,4,4-trifluoro-3,3-dimethylbut-1-yn-1-yl)pyridin-4-yl)-1-methyl-[1,2,4]triazolo[4,3-a]quinazolin-5-amine], in assay [1], the half-maximal effective concentration (EC50) was 2.15 nM. On human DGKα, the IC50 worked out at 15.1 nM.
